The values below are quoted from earlier work in US10934070B2, “Anti-scalping pharmaceutical packaging film” (BEMIS COMPANY, INC., priority 2014, dated 2021).

The conditions of this data set: at 25° C.

What is called vapor pressure is the equilibrium pressure above the liquid or solid. As to `CN1CCCC1c1cccnc1` (stereo not shown) [Nicotine], the vapor pressure is reported as 5.65 Pa.
